Data as given in ChEMBL document CHEMBL5143569.

What follows are molecules tested against T1, Tyrosine-protein phosphatase non-receptor type 11 (Homo sapiens) (UniProt Q06124). Conditions: filed as negative allosteric modulator.
T1 sequence (whole entry): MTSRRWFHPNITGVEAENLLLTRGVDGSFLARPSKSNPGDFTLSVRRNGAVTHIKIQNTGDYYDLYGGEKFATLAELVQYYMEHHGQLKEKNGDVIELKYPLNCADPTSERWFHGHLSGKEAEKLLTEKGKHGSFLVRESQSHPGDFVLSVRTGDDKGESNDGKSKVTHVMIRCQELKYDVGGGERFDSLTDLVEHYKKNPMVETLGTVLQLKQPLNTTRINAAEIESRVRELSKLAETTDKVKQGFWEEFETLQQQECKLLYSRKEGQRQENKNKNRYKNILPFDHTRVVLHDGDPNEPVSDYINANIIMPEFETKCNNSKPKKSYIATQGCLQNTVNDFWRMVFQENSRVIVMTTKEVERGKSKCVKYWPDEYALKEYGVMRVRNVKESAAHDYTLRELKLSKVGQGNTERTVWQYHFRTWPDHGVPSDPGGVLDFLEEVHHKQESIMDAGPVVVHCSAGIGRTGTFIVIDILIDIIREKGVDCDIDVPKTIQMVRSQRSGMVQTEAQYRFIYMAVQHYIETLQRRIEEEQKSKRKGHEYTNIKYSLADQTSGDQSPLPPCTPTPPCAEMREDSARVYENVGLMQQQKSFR
Description: Allosteric inhibition of recombinant human SHP2 assessed as change in melting temperature by SYPRO orange dye based thermal shift assay
Nc1nc(N2CCC(N)CC2)cnc1-c1cccc(Cl)c1Cl showed a ΔTm of 1.72 °C.
CC1(N)CCN(c2cnc(Sc3ccccc3Br)c(N)n2)CC1 showed a ΔTm of 4.47 °C.
NCC1CCN(c2cnc(Sc3cccc(Cl)c3Cl)c(N)n2)CC1 showed a ΔTm of 4.93 °C.
Molecule CC1(CN)CCN(c2cnc(Sc3cccc(Cl)c3Cl)c(N)n2)CC1 has a ΔTm of 7.01 °C.
CN(CCN)c1cnc(-c2cccc(Cl)c2Cl)c(N)n1 gave a ΔTm of 1.06 °C.
For Nc1nc(N2CC[C@H](N)C2)cnc1-c1cccc(Cl)c1Cl, the ΔTm was 1.92 °C.
With CC1(N)CCN(c2cnc(Sc3ccc(Cl)cc3)c(N)n2)CC1 the ΔTm was 0.43 °C.
In the case of CC1(N)CCN(c2cnc(SCc3ccccc3Cl)c(N)n2)CC1, the ΔTm is reported as 0.44 °C.
For CC1(N)CCN(c2cnc(SCc3ccccc3)c(N)n2)CC1, the ΔTm was 0.38 °C.
With CC1(N)CCN(c2cnc(Sc3cccc(Cl)c3)c(N)n2)CC1 the ΔTm was 1.7 °C.
With Cc1ccc(-c2ncc(N3CCC(C)(N)CC3)nc2N)cc1 the ΔTm was 0.42 °C.
CC1(N)CCN(c2cnc(Sc3cccc4ccccc34)c(N)n2)CC1 showed a ΔTm of 3.6 °C.
With COc1ccccc1Sc1ncc(N2CCC(C)(N)CC2)nc1N the ΔTm was 3.79 °C.
Nc1nc(N2CCNCC2)cnc1-c1cccc(Cl)c1Cl showed a ΔTm of 3.01 °C.
In the case of CC1(N)CCN(c2cnc(Sc3ccccc3F)c(N)n2)CC1, the ΔTm is reported as 2.88 °C.
In the case of CC1(N)CCN(c2cnc(Sc3ccc4ccccc4c3)c(N)n2)CC1, the ΔTm is reported as 2.23 °C.
In the case of NCCC1CCN(c2cnc(-c3cccc(Cl)c3Cl)c(N)n2)CC1, the ΔTm is reported as 2.31 °C.
CC1(N)CCN(c2cnc(Sc3cccc(Cl)c3Cl)c(N)n2)CC1 was tested, and the ΔTm was 6.24 °C.
Nc1nc(N2CCC(O)CC2)cnc1-c1cccc(Cl)c1Cl showed a ΔTm of 0.36 °C.
In the case of CC1(N)CCN(c2cnc(-c3cccc(Cl)c3Cl)c(N)n2)CC1, the ΔTm is reported as 4.37 °C.
Molecule CC1(N)CCN(c2cnc(-c3cccc(F)c3F)c(N)n2)CC1 has a ΔTm of 0.52 °C.
Work on CC1(N)CCN(c2cnc(-c3ccc(C#N)cc3)c(N)n2)CC1 yielded a ΔTm of 0.275 °C.
Work on NCC1CCN(c2cnc(-c3cccc(Cl)c3Cl)c(N)n2)CC1 yielded a ΔTm of 3.67 °C.
With CC1(O)CCN(c2cnc(-c3cccc(Cl)c3Cl)c(N)n2)CC1 the ΔTm was 0.435 °C.
In the case of CC1(N)CCN(c2cnc(Sc3ccccc3Cl)c(N)n2)CC1, the ΔTm is reported as 4.13 °C.
For Cc1ccccc1Sc1ncc(N2CCC(C)(N)CC2)nc1N, the ΔTm was 1.75 °C.
In the case of CC1(N)CCN(c2cnc(Sc3ccccc3)c(N)n2)CC1, the ΔTm is reported as 1.72 °C.
CC1(N)CCN(c2cnc(SC3CCCCC3)c(N)n2)CC1 gave a ΔTm of 0.88 °C.
With CNC1CCN(c2cnc(-c3cccc(Cl)c3Cl)c(N)n2)CC1 the ΔTm was 3.06 °C.
Molecule CC1(N)CCN(c2cnc(Sc3ccccc3C(F)(F)F)c(N)n2)CC1 has a ΔTm of 3.45 °C.
CN1CCN(c2cnc(-c3cccc(Cl)c3Cl)c(N)n2)CC1 was tested, and the ΔTm was 3.2 °C.
